{"source": "patent US8470836B2", "about": "“Dipeptidyl peptidase-IV inhibiting compounds, methods of preparing the same, and pharmaceutical compositions containing the same as active agent” (LG Life Sciences, Ltd., priority 2007, dated 2013)", "assay_type_in_all_cases": "biochemical", "key": {"DPP-IX": {"biological_target": "DPP-IX (Homo sapiens (Human), UniProt Q86TI2)", "sequence (Q86TI2 whole entry, species assumed)": "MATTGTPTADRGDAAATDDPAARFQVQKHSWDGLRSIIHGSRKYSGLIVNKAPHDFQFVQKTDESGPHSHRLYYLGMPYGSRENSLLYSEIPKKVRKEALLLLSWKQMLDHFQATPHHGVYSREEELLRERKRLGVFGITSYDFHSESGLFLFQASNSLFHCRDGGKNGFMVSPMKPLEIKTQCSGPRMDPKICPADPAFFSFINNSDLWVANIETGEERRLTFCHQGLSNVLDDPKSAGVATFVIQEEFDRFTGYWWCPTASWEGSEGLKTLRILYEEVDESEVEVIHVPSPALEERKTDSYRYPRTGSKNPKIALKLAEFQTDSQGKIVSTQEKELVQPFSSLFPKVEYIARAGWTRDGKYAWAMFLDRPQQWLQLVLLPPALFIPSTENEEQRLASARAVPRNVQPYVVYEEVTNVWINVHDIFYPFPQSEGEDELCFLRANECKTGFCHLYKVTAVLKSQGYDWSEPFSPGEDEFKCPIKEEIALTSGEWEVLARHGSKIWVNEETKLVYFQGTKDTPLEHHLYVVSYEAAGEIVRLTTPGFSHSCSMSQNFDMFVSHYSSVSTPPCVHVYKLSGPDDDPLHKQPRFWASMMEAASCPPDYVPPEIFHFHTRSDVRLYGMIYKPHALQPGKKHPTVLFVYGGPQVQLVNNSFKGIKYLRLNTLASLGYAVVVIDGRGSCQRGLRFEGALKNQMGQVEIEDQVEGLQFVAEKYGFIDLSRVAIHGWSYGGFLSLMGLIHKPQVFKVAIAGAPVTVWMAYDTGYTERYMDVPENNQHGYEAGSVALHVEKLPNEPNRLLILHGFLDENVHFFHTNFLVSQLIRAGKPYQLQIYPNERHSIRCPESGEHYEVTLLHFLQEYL", "assay": "Measurement of DPP-IX inhibitory activity (Gly-Pro-AFC)", "details": "100 μM Gly-Pro-AFC, 50 mM HEPES pH 7.5, room temperature"}, "DPP-II": {"biological_target": "DPP-II (Homo sapiens (Human), UniProt Q9UHL4)", "assay": "Measurement of DPP-II inhibitory activity (Gly-Pro-AFC)", "details": "100 μM Gly-Pro-AFC, 50 mM acetic acid pH 4.5, room temperature"}, "DPP-VIII": {"biological_target": "DPP-VIII (Homo sapiens (Human), UniProt Q6V1X1)", "sequence (Q6V1X1 whole entry, species assumed)": "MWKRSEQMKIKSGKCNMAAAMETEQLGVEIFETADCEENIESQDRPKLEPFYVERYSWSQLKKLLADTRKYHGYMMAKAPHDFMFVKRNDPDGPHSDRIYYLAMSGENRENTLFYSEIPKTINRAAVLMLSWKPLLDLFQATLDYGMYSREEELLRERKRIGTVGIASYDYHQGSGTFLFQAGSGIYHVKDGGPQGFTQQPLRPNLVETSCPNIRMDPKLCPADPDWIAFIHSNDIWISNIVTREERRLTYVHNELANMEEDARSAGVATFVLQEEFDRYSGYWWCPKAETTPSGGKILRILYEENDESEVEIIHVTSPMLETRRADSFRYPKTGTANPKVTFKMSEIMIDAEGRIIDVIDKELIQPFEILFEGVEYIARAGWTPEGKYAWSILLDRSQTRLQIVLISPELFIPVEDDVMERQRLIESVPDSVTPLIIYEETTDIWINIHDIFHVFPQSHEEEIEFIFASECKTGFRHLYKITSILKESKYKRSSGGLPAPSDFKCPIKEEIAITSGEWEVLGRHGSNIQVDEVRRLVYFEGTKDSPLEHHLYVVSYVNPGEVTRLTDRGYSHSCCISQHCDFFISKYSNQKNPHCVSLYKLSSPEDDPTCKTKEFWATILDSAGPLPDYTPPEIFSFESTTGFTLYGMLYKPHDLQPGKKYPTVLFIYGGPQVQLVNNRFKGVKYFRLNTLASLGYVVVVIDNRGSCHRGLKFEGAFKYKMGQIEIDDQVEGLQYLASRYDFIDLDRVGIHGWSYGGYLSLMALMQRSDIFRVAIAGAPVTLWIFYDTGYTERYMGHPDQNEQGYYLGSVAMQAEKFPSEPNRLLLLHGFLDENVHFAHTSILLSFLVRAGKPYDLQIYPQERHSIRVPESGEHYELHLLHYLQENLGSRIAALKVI", "assay": "Measurement of DPP-VIII inhibitory activity (Gly-Pro-AFC)", "details": "100 μM Gly-Pro-AFC, 50 mM HEPES pH 7.5, room temperature"}, "[1]": {"biological_target": "Dipeptidyl peptidase-IV (DPP-IV) (Homo sapiens (Human), UniProt P27487)", "sequence (P27487 whole entry)": "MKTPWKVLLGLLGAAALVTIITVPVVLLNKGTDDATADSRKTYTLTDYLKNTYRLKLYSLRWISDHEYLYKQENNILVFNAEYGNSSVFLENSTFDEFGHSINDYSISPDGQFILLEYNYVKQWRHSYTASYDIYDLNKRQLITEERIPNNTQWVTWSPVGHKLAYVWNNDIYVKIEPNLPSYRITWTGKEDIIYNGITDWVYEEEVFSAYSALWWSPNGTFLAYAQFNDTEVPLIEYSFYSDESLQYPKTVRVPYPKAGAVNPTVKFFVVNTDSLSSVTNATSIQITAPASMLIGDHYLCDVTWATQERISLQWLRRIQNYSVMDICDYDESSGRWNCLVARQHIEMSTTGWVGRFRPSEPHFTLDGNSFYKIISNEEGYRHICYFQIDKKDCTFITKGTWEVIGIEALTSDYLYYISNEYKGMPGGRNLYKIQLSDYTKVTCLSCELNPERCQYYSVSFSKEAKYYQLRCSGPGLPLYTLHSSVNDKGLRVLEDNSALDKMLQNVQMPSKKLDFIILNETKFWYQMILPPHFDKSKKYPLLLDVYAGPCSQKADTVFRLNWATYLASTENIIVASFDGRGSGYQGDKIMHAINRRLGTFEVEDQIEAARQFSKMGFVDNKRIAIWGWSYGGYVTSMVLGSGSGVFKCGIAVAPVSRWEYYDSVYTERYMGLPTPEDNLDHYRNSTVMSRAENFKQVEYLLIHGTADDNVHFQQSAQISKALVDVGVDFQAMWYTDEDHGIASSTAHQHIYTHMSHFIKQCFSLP", "assay": "Assay of DPP-IV inhibitory activity (fluorescent substrate Ac-Gly-Pro-AFC)", "details": "DPP-IV 7.1 nM, 100 μM Ac-Gly-Pro-AFC, 25° C., 50 mM HEPES pH 7.4, 1 hour"}}, "note": "Structures can show the parent of a compound that is named as a salt.", "data": [{"smiles": "N[C@@H](CC(=O)N1CCc2c(nc(C(F)(F)F)nc2C(F)(F)F)C1)CN1C(=O)CCC(F)(F)[C@@H]1O", "note": "[Example 2, 1-[(2S)-amino-4-(2,4-bis-trifluoromethyl-5,8-dihydro-6H-pyrido[3,4-d]pyrimidin-7-yl)-4-oxo-butyl]-5,5-difluoro-(6S)-hydroxy-piperidin-2-one hydrochloride]", "values": [{"measurement": "IC50", "setting": "DPP-IX", "result": "> 400", "unit": "µM"}]}, {"smiles": "N[C@@H](CC(=O)N1CCc2c(nc(-c3ccncc3)nc2C(F)(F)F)C1)CN1C(=O)CCC(F)(F)[C@@H]1O", "note": "[Example 6, 1-[(S)-2-amino-4-oxo-4-(2-pyridin-4-yl-4-trifluoromethyl-5,8-dihydro-6H-pyrido[3,4-d]pyrimidin-7-yl)-butyl]-5,5-difluoro-6-hydroxy-piperidin-2-one]", "values": [{"measurement": "IC50", "setting": "DPP-II", "result": "> 70", "unit": "µM"}, {"measurement": "IC50", "setting": "DPP-VIII", "result": "> 127", "unit": "µM"}, {"measurement": "IC50", "setting": "DPP-IX", "result": "> 100", "unit": "µM"}]}, {"smiles": "CC1CC(=O)N(C[C@@H](N)CC(=O)N2CCc3c(nc(C(C)(C)C)nc3C(F)(F)F)C2)C1=O", "note": "(stereo partly drawn) [Example 22, 1-[(S)-2-amino-4-(2-t-butyl-4-trifluoromethyl-5,8-dihydro-6H-pyrido[3,4-d]pyrimidin-7-yl)-4-oxo-butyl]-3-methyl-pyrrolidine-2,6-dione hydrochloride]", "values": [{"measurement": "IC50", "setting": "[1]", "result": "> 2.5", "unit": "µM"}]}, {"smiles": "N[C@@H](CC(=O)N1CCc2c(nc(-c3ccco3)nc2C(F)(F)F)C1)CN1C(=O)CCC(F)(F)[C@@H]1O", "note": "[Example 8, 1-[(S)-2-amino-4-(2-furan-2-yl-4-trifluoromethyl-5,8-dihydro-6H-pyrido[3,4-d]pyrimidin-7-yl)-butyl]-4-oxo-butyl]-5,5-difluoro-6-hydroxy-piperidin-2-one hydrochloride]", "values": [{"measurement": "IC50", "setting": "DPP-II", "result": "> 80", "unit": "µM"}, {"measurement": "IC50", "setting": "DPP-VIII", "result": "> 400", "unit": "µM"}, {"measurement": "IC50", "setting": "DPP-IX", "result": "> 130", "unit": "µM"}]}, {"smiles": "N[C@@H](CC(=O)N1CCc2c(nc(C3CCC3)nc2C(F)(F)F)C1)CN1C(=O)CCC(F)(F)C1O", "note": "(stereo partly drawn) [Example 5, 1-[(S)-2-amino-4-(2-cyclobutyl-4-trifluoromethyl-5,8-dihydro-6H-pyrido[3,4-d]pyrimidin-7-yl)-4-oxo-butyl]-5,5-difluoro-6-hydroxy-piperidin-2-one hydrochloride]", "values": [{"measurement": "IC50", "setting": "DPP-II", "result": "> 161", "unit": "µM"}, {"measurement": "IC50", "setting": "DPP-VIII", "result": "> 400", "unit": "µM"}, {"measurement": "IC50", "setting": "DPP-IX", "result": "> 400", "unit": "µM"}]}, {"smiles": "COCCc1nc2c(c(C(F)(F)F)n1)CCN(C(=O)C[C@H](N)CN1C(=O)CCC(F)(F)[C@@H]1O)C2", "note": "[Example 10, 1-{(S)-2-amino-4-[2-(2-methoxy-ethyl)-4-trifluoromethyl-5,8-dihydro-6H-pyrido[3,4-d]pyrimidin-7-yl]-4-oxo-butyl}-5,5-difluoro-6-hydroxy-piperidin-2-one hydrochloride]", "values": [{"measurement": "IC50", "setting": "DPP-II", "result": "> 400", "unit": "µM"}, {"measurement": "IC50", "setting": "DPP-VIII", "result": "> 400", "unit": "µM"}, {"measurement": "IC50", "setting": "DPP-IX", "result": "> 210", "unit": "µM"}]}]}
